{"source": "patent US20260294885A1", "about": "“TREATMENT OF INFLAMMATORY CONDITIONS COMPRISING IMU-856” (IMMUNIC AG, priority 2023, published 2026)", "key": {"[1]": {"assay": "Pharmacokinetics in celiac disease patients, Part C", "type": "in vivo, human", "conditions": "for Cmax at 192 h / Tmax at 192 h / AUC(0-t) at 192 h: human, in vivo, Day 8, mean; for AUC(0-t) at 192 h: read-out: AUC0-t last", "method": "FIG. 1 illustrates the flow chart of part C in celiac disease (CelD) designed as proof-of-concept study with a gluten challenge trial. Part C was planned to include a well-controlled celiac disease patient population: The patients were 100% seronegative, indicating absence of ongoing substantial gluten exposure and was performed at sites in Australia and New Zealand. Part C was designed to assess safety, tolerability and pharmacokinetics of IMU-856 and measured also histologic changes, blood biomarkers, nutrient uptake and disease-related symptoms."}, "[2]": {"tested_on": "other histone deacetylases (HDACs)", "assay": "Enzymatic activity of other histone deacetylases", "type": "biochemical"}, "[3]": {"tested_on": "colorectal adenocarcinoma-2 (Caco-2) cells", "assay": "TEER recovery across a Caco-2 monolayer following inflammation with TNF-α or IL-6", "type": "cell-based, human", "from_the_text": "In one TEER model, tight junction (TJ)-related proteins were investigated, and a normalisation of TJ proteins (claudin (Cldn)-1 and claudin-2) was observed.\nCaCo2 cell line is derived from human epithelial cells from the colon. They are frequently used to mimic intestinal barrier function to either look at permeability of drugs or to look at is functional resistance. For the present experiment, the CaCo2 cells were used to mimic the […] LEFT OUT] and investigate the effect of IMU-856 on this by measuring the electrical transepithelial resistance (TEER). […] For this CaCo2 cells, cultivated in a 6-well trans well plate on top of the membrane that has small pores that prevent the cells from going through but allow molecules and nutrients to pass. […] Then, cells were washed and fresh medium with vehicle or IMU-856 was given. TEER was measured before and after challenge at different time points. For correct measurement, the shorter electrode is inserted into the transwell chamber (without touching the cells), and the longer electrode is inserted in the outer well."}, "SIRT6": {"molecular_target": "SIRT6 (Homo sapiens, UniProt Q8N6T7)", "sequence (Q8N6T7 whole entry)": "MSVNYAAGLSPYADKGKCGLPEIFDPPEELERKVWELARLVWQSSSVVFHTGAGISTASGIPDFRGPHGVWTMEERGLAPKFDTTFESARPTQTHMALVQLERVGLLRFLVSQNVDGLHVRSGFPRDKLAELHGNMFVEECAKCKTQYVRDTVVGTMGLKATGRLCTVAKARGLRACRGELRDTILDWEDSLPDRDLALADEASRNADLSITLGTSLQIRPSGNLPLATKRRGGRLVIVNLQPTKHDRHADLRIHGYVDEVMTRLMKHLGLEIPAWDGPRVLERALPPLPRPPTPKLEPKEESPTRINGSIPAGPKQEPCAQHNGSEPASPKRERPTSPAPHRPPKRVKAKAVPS", "assay": "Inhibition of SIRT6 deacetylation of acetylated H3K56, in vitro cell free", "type": "biochemical"}, "[4]": {"tested_on": "patients with celiac disease", "assay": "Nutrient absorption (vitamin B12, zinc, ferritin), Part C", "type": "in vivo, human", "conditions": "for increase in vitamin B12 levels: over the course of the trial; for mean increase in vitamin B12 levels / mean increase in zinc levels: baseline to Day 29", "method": "In Part A, healthy subjects were randomised to single ascending doses of IMU-856 (10 mg to 160 mg) or placebo. In Part B healthy subjects were randomised to multiple once-daily doses of IMU-856 (40, 80, and 160 mg) or placebo for 14 days. Part C randomised patients with celiac disease who were on a gluten-free diet to multiple once-daily doses of IMU-856 (80 mg and 160 mg) or placebo for 28 days; a once-daily gluten challenge (6 g) was introduced on Day 14 and ended on Day 28. 71 healthy subjects were enrolled in Part A and B (N=19 placebo and N=52 IMU-856) and 43 patients with CelD in Part C (N=14 placebo; N=14 for 80 mg, and N=15 for 160 mg). In Parts A and B, treatment-emergent adverse events (TEAEs) occurred in 24 (73%) and 15 (79%) of subjects receiving any dose of IMU-856 compared to 6 (50%) and 5 (71%) with placebo, respectively. […] In Part C, the most common adverse events with any dose of IMU-856 by preferred term were headache (13 [45%]), nausea (9 [31%]), diarrhoea (8 [28%]), and abdominal distension (7 [24%]). […] In Part C, the mean change in villous height from baseline to Day 29 with 80 mg and 160 mg was −20.9±34.8 μm, and −22.5±51.1 μm, respectively, and −60.3±52.2 μm with placebo. […] Mean change in plasma citrulline increased with 80 mg and 160 mg from baseline to Day 14 (2.4±6.2 and 6.1±5.9 μmol/L, respectively) and from baseline to Day 29 (2.8±7.6 and 2.2±5.3 μmol/L, respectively), but not with placebo (−2.7±5.6 and −4.0±6.5 μmol/L). […] Mean increase in zinc levels from baseline to Day 29 with 80 mg and 160 mg were 0.3±1.4 and 0.9±2.1 μmol/L compared to a mean decrease in placebo (−0.9±2.1 μmol/L). Gluten-induced symptoms were also attenuated by IMU-856. […]"}, "[5]": {"tested_on": "patients with celiac disease", "assay": "Patient-reported symptoms with gluten challenge (Celiac Disease Symptom Diary), Part C", "type": "in vivo, human", "set-up": "key to mean change in bloating / mean change in tiredness: change on 5-point severity scale (1=none to 5=very severe)", "conditions": "for mean change in abdominal pain (SD) / mean change in diarrhea (SD) / mean change in nausea (SD): last day before to first day of gluten challenge, CDSD 5-point scale", "from_the_text": "In an embodiment, the celiac disease patient is experiencing one or more symptoms as assessed by the CDSD Version 2.1® (ImmunogenX LLC) at the start of treatment with IMU-856 or a pharmaceutically acceptable salt or a solvate thereof. The CDSD questionnaire was developed to assess symptom severity in clinical trials in subjects with celiac disease. The CDSD includes five symptoms (diarrhea, abdominal pain, bloating, nausea, tiredness) asking participants about the severity of celiac disease symptoms they experience each day. Subjects rate their symptom severity on a 5-point scale (1=none, 2=mild, 3=moderate, 4=severe, 5=very severe). In various embodiments, the celiac disease patient is experiencing one or more significant or severe symptomatic days (based on CDSD) at the start of treatment with IMU-856 or a pharmaceutically acceptable salt or a solvate thereof.\nImprovement in clinical symptoms of gluten exposure: On the first day of gluten challenge, the placebo group (N=12) experienced a marked average increase in symptoms, as assessed by the Celiac Disease Symptom Diary using a 5-point scale of 0.8 for nausea, 0.8 for abdominal pain, and 0.8 diarrhea. In contrast, among the pooled IMU-856 arms (N=26), these average increases were only 0.4 for nausea, 0.5 for abdominal pain and 0.6 for diarrhea."}, "[6]": {"conditions": "160 mg (N 11), Day 14 to Day 29"}, "[7]": {"conditions": "160 mg (N 13), Day 13 to Day 14"}, "[8]": {"conditions": "All Active (N 20), Day 14 to Day 29"}, "[9]": {"conditions": "All Active (N 26), Day 13 to Day 14"}, "[10]": {"conditions": "continued treatment during gluten challenge"}}, "note": "Entries after “also recorded” stand apart in the source; their conditions may differ. Read-outs that look alike come from different tables or passages of the source."}
{"smiles": "Cn1c(COc2cc(C(F)(F)F)ccn2)nnc1[C@H]1CC[C@H](c2cnn([C@H]3CC[C@H](N4CC5(CCO5)C4)CC3)c2)CC1", "note": "[IMU-856, 6-(trans-4-(4-(trans-4-(4-methyl-5-(((4-(trifluoromethyl)pyridin-2-yl)oxy)methyl)-4H-1,2,4-triazol-3-yl)cyclohexyl)-1H-pyrazol-1-yl)cyclohexyl)-1-oxa-6-azaspiro[3.3]heptane]", "values": [{"measurement": "achievement of steady state", "setting": "[1]; Part C", "value": "fast achievement of steady state"}, {"measurement": "dose linearity of plasma Cmax and AUC", "setting": "[1]; Part C", "value": "linear pharmacokinetics with dose-proportional increase"}, {"measurement": "mean trough levels / exposure over dosing period", "setting": "[1]; Part C", "value": "constant exposure within the whole dosing period"}, {"measurement": "Cmax at 192 h", "setting": "[1]; IMU-856 80 mg", "value": 354, "unit": "ng/mL"}, {"measurement": "Tmax at 192 h", "setting": "[1]; IMU-856 80 mg", "value": 1.9, "unit": "h"}, {"measurement": "AUC(0-t) at 192 h", "setting": "[1]; IMU-856 80 mg", "value": 1570, "unit": "ng·h/mL"}, {"measurement": "Cmax at 192 h", "setting": "[1]; IMU-856 160 mg", "value": 766, "unit": "ng/mL"}, {"measurement": "Tmax at 192 h", "setting": "[1]; IMU-856 160 mg", "value": 1.5, "unit": "h"}, {"measurement": "AUC(0-t) at 192 h", "setting": "[1]; IMU-856 160 mg", "value": 3610, "unit": "ng·h/mL"}, {"measurement": "inhibition of enzymatic activity of other HDACs", "setting": "[2]", "value": "does not inhibit"}, {"measurement": "recovery of TEER", "setting": "[3]; following inflammation with IL-6", "value": "significantly accelerates the recovery"}, {"measurement": "recovery of TEER", "setting": "[3]; following inflammation with TNF-α", "value": "significantly accelerates the recovery"}, {"measurement": "inhibition of deacetylase activity of SIRT6", "setting": "SIRT6", "value": "selective inhibitor of the deacetylase activity"}, {"measurement": "deacetylation of H3K56", "setting": "SIRT6; in vitro cell free system", "value": "prevents the deacetylation"}, {"measurement": "increase in vitamin B12 levels", "setting": "[4]; 80 mg (N=11)", "value": 45.8, "unit": "pmol/L"}, {"measurement": "mean increase in vitamin B12 levels", "setting": "[4]; 80 mg", "value": "45.8 ± 94.4", "unit": "pmol/L"}, {"measurement": "mean increase in zinc levels", "setting": "[4]; 80 mg", "value": "0.3 ± 1.4", "unit": "µmol/L"}, {"measurement": "increase in vitamin B12 levels", "setting": "[4]; 160 mg (N=13)", "value": 74.2, "unit": "pmol/L"}, {"measurement": "mean increase in vitamin B12 levels", "setting": "[4]; 160 mg", "value": "74.2 ± 99.9", "unit": "pmol/L"}, {"measurement": "mean increase in zinc levels", "setting": "[4]; 160 mg", "value": "0.9 ± 2.1", "unit": "µmol/L"}, {"measurement": "gluten-induced iron malabsorption (ferritin levels)", "setting": "[4]; Baseline to Day 29", "value": "ameliorates the gluten-induced iron malabsorption; also recorded: decreased to a lesser extent"}, {"measurement": "nutrient absorption (vitamin B12)", "setting": "[4]; in words", "value": "enhances nutrient absorption in a dose-dependent manner"}, {"measurement": "nutrient absorption (zinc)", "setting": "[4]; in words", "value": "enhances nutrient absorption in a dose-dependent manner; also recorded: A similar responses to treatment was observed for zinc"}, {"measurement": "mean change in bloating", "setting": "[5]; 80 mg (N 9), Day 14 to Day 29", "value": "−0.4"}, {"measurement": "mean change in tiredness", "setting": "[5]; 80 mg (N 9), Day 14 to Day 29", "value": "−0.1"}, {"measurement": "mean change in bloating", "setting": "[5]; 80 mg (N 13), Day 13 to Day 14", "value": 0.3}, {"measurement": "mean change in tiredness", "setting": "[5]; 80 mg (N 13), Day 13 to Day 14", "value": 0.2}, {"measurement": "mean change in abdominal pain (SD)", "setting": "[5]; 80 mg (N = 13)", "value": "0.5 (0.78)"}, {"measurement": "mean change in diarrhea (SD)", "setting": "[5]; 80 mg (N = 13)", "value": "0.5 (0.97)"}, {"measurement": "mean change in nausea (SD)", "setting": "[5]; 80 mg (N = 13)", "value": "0.2 (0.69)"}, {"measurement": "mean change in bloating", "setting": "[5]; [6]", "value": "−0.5"}, {"measurement": "mean change in tiredness", "setting": "[5]; [6]", "value": "−0.5"}, {"measurement": "mean change in bloating", "setting": "[5]; [7]", "value": 0.5}, {"measurement": "mean change in tiredness", "setting": "[5]; [7]", "value": 0.5}, {"measurement": "mean change in abdominal pain (SD)", "setting": "[5]; 160 mg (N = 13)", "value": "0.4 (0.87)"}, {"measurement": "mean change in diarrhea (SD)", "setting": "[5]; 160 mg (N = 13)", "value": "0.6 (1.12)"}, {"measurement": "mean change in nausea (SD)", "setting": "[5]; 160 mg (N = 13)", "value": "0.7 (1.03)"}, {"measurement": "mean change in bloating", "setting": "[5]; [8]", "value": "−0.5"}, {"measurement": "mean change in tiredness", "setting": "[5]; [8]", "value": "−0.3"}, {"measurement": "mean change in bloating", "setting": "[5]; [9]", "value": 0.4}, {"measurement": "mean change in tiredness", "setting": "[5]; [9]", "value": 0.3}, {"measurement": "gluten-induced symptoms", "setting": "[5]; Part C", "value": "attenuated"}, {"measurement": "symptoms (nausea, abdominal pain or diarrhea)", "setting": "[5]; after first day of gluten challenge (Day 14), versus placebo", "value": "fewer symptoms"}, {"measurement": "patient-reported ability to perform daily activities", "setting": "[5]; [10]", "value": "improvement"}, {"measurement": "recovery from bloating symptoms", "setting": "[5]; [10]", "value": "recover to a higher extent; also recorded: improvement"}, {"measurement": "recovery from tiredness symptoms", "setting": "[5]; [10]", "value": "recover to a higher extent; also recorded: improvement"}, {"measurement": "protection against acute gluten-induced symptoms", "setting": "[5]; first day of gluten challenge", "value": "initial signal of protection against acute gluten-induced symptoms"}, {"measurement": "protection against chronic gluten-induced symptoms", "setting": "[5]; human, in vivo", "value": "initial signal of protection against chronic gluten-induced symptoms"}]}
